# Assay results published in patent US9415106B2, “α-form zinc-phthalocyanine nanowires having enhanced water solubility and water dispersibility, composite of an α-form zinc-phthalocyanine nanowire/phenothiazine, and method for preparing same” (POHANG UNIVERSITY OF SCIENCE AND TECHNOLOGY INDUSTRY …, priority 2011, dated 2016).
# How the values were obtained:
# [1] = Photothermal property: temperature change of aqueous solutions upon laser irradiation; assay type: physicochemical; conditions: 3 W/cm^2, 3 minutes
# Description: The PT property was examined by monitoring temperature changes of α-form ZnPc nanowire aqueous solutions (60, 80, 120 mg/L) upon light illumination at two different wavelengths (λ) of 660 nm, at which the highest absorption occurs, and 808 nm, at which most biological systems become transparent, at the power of 3 W/cm^2.
# The α-form ZnPc nanowire solution and zinc phthalocyanine tetrasulfonate (ZnPcS4) solutions at various concentrations (60, 80, 120 mg/L) were irradiated using a 660/808 nm laser (diode laser, JENOPTIK unique-mode GmbH, Germany) at 3 W/cm^2. The temperature of each solution was measured with a thermocouple connected temperature controller (Hanyoung, Korea) at 20-second intervals for a total of 3 minutes. Three sets per each solution were measured.
# KB cells = assay: ROS generation in KB cells (Image-iT LIVE ROS Kit, H2DCFDA fluorescence); assay type: cell-based, human; conditions: irradiated with NIR 808 nm, 3 W/cm^2
# Description: The PD activity of α-form ZnPc nanowire was proven by detecting reactive oxygen species generated upon illumination with NIR upon irradiation with NIR (λ=808 nm) laser. The reactive oxygen species generated from NIR-activated KB cells containing α-form ZnPc nanowires was assessed using Image-iT™ LIVE Reactive Oxygen Species (ROS) Kit.
# This experiment is based on 5-(and-6)-carboxy-2′7′-dichlorodihydrofluorescein diacetate (carboxy-H2DCFDA) as a fluorogenic marker for ROS permeated viable cells. In the presence of ROS, the reduced carboxy-H2DCFDA is supposed to be oxidized to emit bright green fluorescence. Therefore, the oxidatively stressed cells by ROS could be recognized by green fluorescence.
# The generation of reactive oxygen species (ROS) was monitored using Image-iT™ LIVE Reactive Oxygen Species Kit based on H2DCFDA (Molecular Probes/Invitrogen), following the manufacturer's protocol. Pre-seeded epidermoid mouth carcinoma cells (KB cells) were incubated with ZnPc nanowire solution (120 mg/L) at 37° C. with 5% CO2 for 18 hours. Then, after washing the cells thoroughly with phosphate buffer saline (PBS), the cells were irradiated with an 808 nm laser. […] In the presence of ROS, the reduced fluorescein compound is oxidized and emits bright green fluorescence. Fluorescence intensity was measured at 529 nm using a fluorescence spectrometer (Cary Eclipse, Varian).
# [2] = Water solubility, dispersibility and stability of aqueous solution after sonication; assay type: physicochemical
# Description: An α-form ZnPc nanowire solution was prepared by adding 1 mg of α-form ZnPc nanowires collected from Si substrates into 5 ml of water, followed by sonication for various times in a bath sonicator (UC-10, JEIOTECH). The final solution was transferred for the measurement of optical absorbance using a UV-vis spectrometer (Agilent 8453 spectrophotometer). The concentration of the α-form ZnPc nanowire solution was determined by measurement of optical absorbance at 219 nm. The calibration curve was made by measuring the optical absorbance of a sequentially diluted solution at 219 nm.
"temperature of solution upon laser irradiation ([1]; 660 nm (FIGS. 18, 19), from room temperature, 60-120 mg/L)","temperature of solution upon laser irradiation ([1]; 808 nm, 120 mg/L)",water solubility (qualitative) [2],Compound,amount of ROS generated (green fluorescence) (KB cells)
similar,negligible temperature changes,,zinc phthalocyanine tetrasulfonate [ZnPcS4],insignificant
,,did not increase,"[Zn+2].c1ccc2c(c1)-c1nc-2nc2[n-]c(nc3nc([n-]c4nc(n1)-c1ccccc1-4)-c1ccccc1-3)c1ccccc21 [ZnPc powder, zinc-phthalocyanine]",
